From publication PMC3523469 (Investigational New Drugs, 2012)
Read-outs that look alike come from different tables or passages of the source.

Type: in vivo, Japanese patients
Conditions: 15 mg QD (n = 3)

## COc1cc2ncnc(Nc3ccc(F)c(Cl)c3)c2cc1NC(=O)/C=C/CN1CCCCC1 [dacomitinib, Dacomitinib]
All
  Alanine aminotransferase increased, number of patients with treatment-related AE: 0
  Aspartate aminotransferase increased, number of patients with treatment-related AE: 0
  Blood bilirubin increased, number of patients with treatment-related AE: 0
  Cheilitis, number of patients with treatment-related AE: 2
  Conjunctivitis, number of patients with treatment-related AE: 0
  Decreased appetite, number of patients with treatment-related AE: 0
  Diarrhea, number of patients with treatment-related AE: 2
  Dry skin, number of patients with treatment-related AE: 2
  ECG QT prolonged, number of patients with treatment-related AE: 2
  Edema, number of patients with treatment-related AE: 0
  Fatigue, number of patients with treatment-related AE: 0
  Hematuria, number of patients with treatment-related AE: 0
  Hypertrichosis, number of patients with treatment-related AE: 0
  Leukopenia, number of patients with treatment-related AE: 0
  Nausea, number of patients with treatment-related AE: 0
  Palmar–plantar erythrodysesthesia, number of patients with treatment-related AE: 1
  Paronychia, number of patients with treatment-related AE: 1
  Proteinuria, number of patients with treatment-related AE: 0
  Rash, number of patients with treatment-related AE: 3
  Skin fissures, number of patients with treatment-related AE: 0
  Stomatitis, number of patients with treatment-related AE: 1
  Weight decreased, number of patients with treatment-related AE: 0
G1
  Alanine aminotransferase increased, number of patients with treatment-related AE: 0
  Aspartate aminotransferase increased, number of patients with treatment-related AE: 0
  Blood bilirubin increased, number of patients with treatment-related AE: 0
  Cheilitis, number of patients with treatment-related AE: 2
  Conjunctivitis, number of patients with treatment-related AE: 0
  Decreased appetite, number of patients with treatment-related AE: 0
  Diarrhea, number of patients with treatment-related AE: 2
  Dry skin, number of patients with treatment-related AE: 1
  ECG QT prolonged, number of patients with treatment-related AE: 1
  Edema, number of patients with treatment-related AE: 0
  Fatigue, number of patients with treatment-related AE: 0
  Hematuria, number of patients with treatment-related AE: 0
  Hypertrichosis, number of patients with treatment-related AE: 0
  Leukopenia, number of patients with treatment-related AE: 0
  Nausea, number of patients with treatment-related AE: 0
  Palmar–plantar erythrodysesthesia, number of patients with treatment-related AE: 1
  Paronychia, number of patients with treatment-related AE: 0
  Proteinuria, number of patients with treatment-related AE: 0
  Rash, number of patients with treatment-related AE: 2
  Skin fissures, number of patients with treatment-related AE: 0
  Stomatitis, number of patients with treatment-related AE: 1
  Weight decreased, number of patients with treatment-related AE: 0
G2
  Alanine aminotransferase increased, number of patients with treatment-related AE: 0
  Aspartate aminotransferase increased, number of patients with treatment-related AE: 0
  Blood bilirubin increased, number of patients with treatment-related AE: 0
  Cheilitis, number of patients with treatment-related AE: 0
  Conjunctivitis, number of patients with treatment-related AE: 0
  Decreased appetite, number of patients with treatment-related AE: 0
  Diarrhea, number of patients with treatment-related AE: 0
  Dry skin, number of patients with treatment-related AE: 1
  ECG QT prolonged, number of patients with treatment-related AE: 1
  Edema, number of patients with treatment-related AE: 0
  Fatigue, number of patients with treatment-related AE: 0
  Hematuria, number of patients with treatment-related AE: 0
  Hypertrichosis, number of patients with treatment-related AE: 0
  Leukopenia, number of patients with treatment-related AE: 0
  Nausea, number of patients with treatment-related AE: 0
  Palmar–plantar erythrodysesthesia, number of patients with treatment-related AE: 0
  Paronychia, number of patients with treatment-related AE: 1
  Proteinuria, number of patients with treatment-related AE: 0
  Rash, number of patients with treatment-related AE: 1
  Skin fissures, number of patients with treatment-related AE: 0
  Stomatitis, number of patients with treatment-related AE: 0
  Weight decreased, number of patients with treatment-related AE: 0
G3
  Alanine aminotransferase increased, number of patients with treatment-related AE: 0
  Aspartate aminotransferase increased, number of patients with treatment-related AE: 0
  Blood bilirubin increased, number of patients with treatment-related AE: 0
  Cheilitis, number of patients with treatment-related AE: 0
  Conjunctivitis, number of patients with treatment-related AE: 0
  Decreased appetite, number of patients with treatment-related AE: 0
  Diarrhea, number of patients with treatment-related AE: 0
  Dry skin, number of patients with treatment-related AE: 0
  ECG QT prolonged, number of patients with treatment-related AE: 0
  Edema, number of patients with treatment-related AE: 0
  Fatigue, number of patients with treatment-related AE: 0
  Hematuria, number of patients with treatment-related AE: 0
  Hypertrichosis, number of patients with treatment-related AE: 0
  Leukopenia, number of patients with treatment-related AE: 0
